Experimental data reported in patent publication US5543415A, “Antidepressants” (Kyowa Hakko Kogyo Co., Ltd., priority 1992, dated 1996).

Tests used:
ddY-strain male mice = assay: Acute Toxicity Test (minimum lethal dose, oral); format: in vivo; details: seven days after administration
Protocol: Test compounds were orally administered to groups of ddY-strain male mice weighing 20±1 g, each group consisting of three mice. Seven days after the administration, minimum lethal dose (MLD) of each compound was determined by observing the mortality.

[1] = tested on: clonidine-induced aggressive behavior; assay: Effect on Clonidine-Induced Aggressive Behavior (number of biting attacks during 30 minutes); format: in vivo, male ddY mice; details: po; for Number of the Biting Attacks (mean ± S.E.M.), Test Compound-Treated Group: 60 min before clonidine 20 mg/kg ip, 30 min count
Protocol: The effect of a test compound on the aggressive behavior induced by intraperitoneal administration of clonidine was investigated. […] The experiment was performed by using several groups of male ddY mice (weighing 20 to 25 g, Japan SLC), each group consisting of two mice. The test compound was suspended in injectable distilled water (Otsuka Pharmaceutical Co., Ltd.) containing Tween 80 [polyoxyethylene (20) sorbitan monooleate]. Clonidine hydrochloride (Sigma Co.) was dissolved in physiological saline solution (Otsuka Pharmaceutical Co., Ltd.). The test compound suspension and the control suspension were orally administered to separate groups of the mice (0.1 ml per 10 g of body weight). Sixty minutes after the oral administration of the test compound, clonidine hydrochloride (20 mg/kg) was intraperitoneally injected. The number of biting attacks during 30 minutes after clonidine treatment was counted. The effect of the compound was evaluated by comparing the average number of biting attacks of the test compound-administered groups with that of control groups (Statistical comparison: Student's t-test).

[2] = Mus musculus, 10 mg/kg, read-out: Number of the Attacks of Test Compound-Treated Group/Number of the Attacks of Control Group
[3] = Mus musculus, 2.5 mg/kg, read-out: Number of the Attacks of Test Compound-Treated Group/Number of the Attacks of Control Group

Compound	MLD (minimum lethal dose) (ddY-strain male mice) [mg/kg]	Number of the Biting Attacks (mean ± S.E.M.), Test Compound-Treated Group ([1]; 10 mg/kg)	response vs control in vivo at 10 mg/kg [1, 2] [%]	Number of the Biting Attacks (mean ± S.E.M.), Test Compound-Treated Group ([1]; 2.5 mg/kg)	response vs control in vivo at 2.5 mg/kg [1, 3] [%]	Number of the Biting Attacks (mean ± S.E.M.), Test Compound-Treated Group ([1]; 5 mg/kg)	response vs control in vivo at 5 mg/kg ([1]; Mus musculus, 5 mg/kg, read-out: Number of the Attacks of Test Compound-Treated Group/Number of the Attacks of Control Group) [%]	Number of the Biting Attacks (mean ± S.E.M.), Test Compound-Treated Group ([1]; 0.63 mg/kg)	response vs control in vivo at 0.63 mg/kg ([1]; Mus musculus, 0.63 mg/kg, read-out: Number of the Attacks of Test Compound-Treated Group/Number of the Attacks of Control Group) [%]
CCCn1c(=O)c2c(nc(/C=C/c3ccc(OC)c(OC)c3OC)n2C)n(CCC)c1=O [Compound 22, (E)-7-Methyl-1,3-dipropyl-8-(2,3,4-trimethoxystyryl)xanthine]	> 300	33.1 ± 5.18	680	–	–	–	–	–	–
CCn1c(=O)c2c(nc(/C=C/c3ccc(OC)c(Br)c3)n2C)n(CC)c1=O [Compound 114, (E)-8-(3-Bromo-4-methoxystyryl)-1,3-diethyl-7-methylxanthine]	> 100	37.8 ± 8.66	–	–	–	–	–	–	–
CCCn1c(=O)c2c(nc(/C=C/c3ccc(OC)cc3)n2C)n(CCC)c1=O [Compound 6, (E)-8-(4-Methoxystyryl)-7-methyl-1,3-dipropylxanthine]	> 300	83.7 ± 10.95	–	–	–	–	–	–	–
CCn1c(=O)c2c(nc(/C=C/c3cc(OC)cc(OC)c3)n2C)n(CC)c1=O [Compound 130, (E)-8-(3,5-Dimethoxystyryl)-1,3-diethyl-7-methyl-xanthine]	> 300	52.2 ± 11.79	480	–	–	–	–	–	–
CCn1c(=O)c2c(nc(/C=C/c3ccc(C)cc3)n2C)n(CC)c1=O [Compound 152, (E)-1,3-Diethyl-7-methyl-8-(4-methylstyryl)xanthine]	> 100	82.6 ± 23.07	670	–	–	–	–	–	–
CCCn1c(=O)c2c(nc(/C=C/c3ccc4c(c3)OCCO4)n2C)n(CCC)c1=O [Compound 18, (E)-8-[2-(1,4-Benzodioxan-6-yl)vinyl]-7-methyl-1,3-dipropylxanthine]	> 300	26.2 ± 7.32	640	8.6 ± 3.74	390	–	–	–	–
CCn1c(=O)c2c(nc(/C=C/c3ccc(OC)c(C)c3)n2C)n(CC)c1=O [Compound 175, (E) -1,3-Diethyl-8-(4-methoxy-3-methylstyryl)-7-methylxanthine]	> 100	49.1 ± 15.59	790	–	–	–	–	–	–
CCCn1c(=O)c2c(nc(/C=C/c3cc(OC)c(OC)c(OC)c3)n2C)n(CCC)c1=O [Compound 5, (E)-7-Methyl-1,3-dipropyl-8-(3,4,5-trimethoxystyryl)xanthine]	> 300	–	–	–	–	25.4 ± 7.71	350	–	–
CCn1c(=O)c2c(nc(/C=C/c3ccc(OC)c(OC)c3)n2C)n(CC)c1=O [Compound 74, (E)-8-(3,4-Dimethoxystyryl)-1,3-diethyl-7-methylxanthine]	> 300	73.3 ± 8.75	–	51.3 ± 8.70	840	–	–	23.2 ± 5.19	380
